Reference: US8299064B2, “Fused polycyclic compounds having a heterocyclic ring(s) and pharmaceutical use thereof” (priority 2003, dated 2012)

System: adipose cells of rats
Assay: Evaluation of the sugar transporting capacity (2-[14C(U)]-deoxy-D-glucose incorporation)
Assay type: cell-based
Details: insulin 100 nM; isolated rat adipose cells
Procedure: After the decapitation and venesection of 6 male Wistar rats (body weight: 150 to 200 g), an incision was made in the abdomen of each rat to extract 6 g in total of epididymal adipose tissues. The tissues were finely cut into 2 mm×2 mm pieces in 6 ml of KRH (Krebs-Ringer Hepes, composition: 130 mM of sodium chloride, 4.7 mM of potassium chloride, 1.2 mM of potassium dihydrogenphosphate, 1.2 mM of magnesium sulfate, 1 mM of calcium chloride and 25 mM of Hepes, pH=7.6) containing 5% of BSA (bovine serum albumin). 24 mg of collagenase (type I) was added thereto and the digestion treatment was conducted for about 40 minutes to obtain about 6 ml of isolated adipose cells. The collagenase was removed by the buffer exchange. 2% BSA/KRH solution was added to the residue for the re-suspension to obtain 45 ml of an adipose cell suspension.
The sugar transporting capacity of the compound of the present invention was evaluated with reference to a method described in a literature [Annual Review of Biochemistry, Vol. 55, p. 1059 (1986)]. […]
The sugar transporting capacity was evaluated by measuring the quantity of 2-[^14C(U)]-deoxy-D-glucose incorporated per a unit time. […] The quantity of 2-[^14C(U)]-deoxy-D-glucose contained in the adipose cell layer was determined with a liquid scintillation counter to determine the quantity of the incorporated sugar. […]

insulin
effect of increasing the sugar-transporting capacity versus insulin-free control group: about 7 times
